# Molecular target: pure human DP-IV (Homo sapiens, UniProt P27487)
# Assay: Inhibition of pure human DP-IV in vitro, fluorescent substrate Ala-Pro-AFC, Ki from Dixon plots
# Details: not given
# Protocol: All compounds were tested in vitro against pure human DP-IV (purchased from M & E, Copenhagen, Denmark). […] Ki values were determined using Dixon plots.
# Sequence of pure human DP-IV (P27487 whole entry): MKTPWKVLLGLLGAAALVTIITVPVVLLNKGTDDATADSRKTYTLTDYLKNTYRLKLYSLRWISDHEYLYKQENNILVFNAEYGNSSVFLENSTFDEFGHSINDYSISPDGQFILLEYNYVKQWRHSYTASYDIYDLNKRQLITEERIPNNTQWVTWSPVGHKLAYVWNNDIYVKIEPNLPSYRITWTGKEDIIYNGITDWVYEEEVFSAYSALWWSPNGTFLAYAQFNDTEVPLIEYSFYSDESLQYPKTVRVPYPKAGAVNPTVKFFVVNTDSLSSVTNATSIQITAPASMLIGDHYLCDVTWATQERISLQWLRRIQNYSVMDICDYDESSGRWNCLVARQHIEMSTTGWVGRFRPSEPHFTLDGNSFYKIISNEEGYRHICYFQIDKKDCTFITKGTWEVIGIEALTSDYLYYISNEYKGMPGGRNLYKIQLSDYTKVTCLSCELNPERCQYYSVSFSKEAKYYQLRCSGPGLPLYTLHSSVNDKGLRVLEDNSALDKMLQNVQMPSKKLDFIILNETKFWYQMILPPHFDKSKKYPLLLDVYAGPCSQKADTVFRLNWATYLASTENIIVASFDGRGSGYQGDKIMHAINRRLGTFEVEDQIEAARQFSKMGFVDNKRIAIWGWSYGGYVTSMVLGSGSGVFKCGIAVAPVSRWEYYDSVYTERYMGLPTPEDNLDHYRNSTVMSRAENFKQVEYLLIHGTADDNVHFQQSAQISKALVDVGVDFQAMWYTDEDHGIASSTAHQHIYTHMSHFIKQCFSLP
row,Ki,SMILES
1,0.5 nM,N#C[C@@H]1CSCN1C(=O)[C@@H](N)C1CCCC1 [compound 23]
2,37 nM,N#C[C@@H]1CCCN1C(=O)[C@H]1CC=CC[C@@H]1N [compound 35]
3,9.8 nM,N[C@H]1CCCC[C@@H]1C(=O)N1CCC[C@H]1C=O [compound 38]
4,2 nM,CC1(C)C2CC3OB(C4CCCN4C(=O)C4CC=CCC4N)OC3(C)C1C2 (centres unmarked) [compound 44]
5,17 nM,N#C[C@@H]1CCCN1C(=O)[C@@H](N)CCCCNC(=O)CCCCCCCN [compound 136]

# Second part, the molecule before the results:
row,SMILES,Ki
1,N[C@@H](CCC(=O)NCCCCCC(=O)OCc1ccccc1)C(=O)N1CCCC1 [compound 59],150 nM
2,N[C@@H](CCC(=O)NCCCCCCC(=O)NCCCCCC(=O)O)C(=O)N1CCCC1 [compound 66],180 nM
3,N#C[C@@H]1CCCN1C(=O)[C@@H](N)CCC(=O)NCCCCCC(=O)OCc1ccccc1 [compound 97],0.5 nM
4,"N[C@@H](CCCCNC(=O)CCCNS(=O)(=O)c1c(F)c(F)c(F)c(F)c1F)C(=O)N1CCCC1 [compound 110, H-Lys[CO(CH2)3 NHSO2 Pfp]Prl]",250 nM
5,"CCCCCCO[C@H](C)[C@H](N)C(=O)N1CCCC1 [compound 143, H-Thr[(CH2)5 CH3]pyrrolidide]",940 nM

# Same assay, conditions: read-out: Ki against DP-IV; pure human DP-IV, pH 7.8, substrate Ala-Pro-AFC, Dixon plots
row,Ki,SMILES
1,1700 nM,CC[C@H](C)[C@H](N)/C=C1\CCC[C@H]1C#N [compound 150]

# Source: US5939560A, “Inhibitors of DP-mediated processes, compositions and therapeutic methods thereof” (Ferring B.V., priority 1993, dated 1999)
